For one compound, minimal effective dose results are on record in patent US4460587A, “5-Diazacycloalkyl imidazo[1,2-c][1,3]benzodiazepines” (Ciba-Geigy Corporation, priority 1982, dated 1984).

For assay [1], the system named is learned conditioned avoidance behavior. As to the kind of experiment: conditioned avoidance (lever press to avoid electric foot shock) in monkeys. Type of assay: in vivo, squirrel monkeys. The conditions noted are these: Primates, oral, read-out: oral dose that disrupts avoidance behavior, e.g. decreases avoidance responses. As to the method:
(§1) Each lever press postpones the shock for 30 seconds. Whenever the animal fails to press the lever once within said period, brief (0.5 sec.) shocks are delivered at 15 second intervals until the animal again presses the lever. Under control conditions the animals press the lever at a moderately steady rate and seldom receive more than five or six shocks during a 25-minute (rats) and up to 4-hour experimental session. Said compounds are administered to the animals 30, 90, 210 minutes prior to the experimental session, and block the learned conditioned avoidance behavior, manifested by a decrease in avoidance responding with a marked increase in shocks taken by the animal. Both the avoidance responses and failures (shocks received) are recorded separately for evaluation.

Assay [2] shares this test system. Put plainly: conditioned avoidance (lever press to avoid electric foot shock) in rats. Type of assay: in vivo. To be noted: Rattus norvegicus, oral, read-out: oral dose that disrupts avoidance behavior, e.g. decreases avoidance responses. How it is done: as §1

Regarding `CN1CCN(C2=Nc3ccccc3Cc3nccn32)CC1` [example 1, 5-(4-methyl-1-piperazinyl)-11H-imidazo[1,2-c][1,3]benzodiazepine], the minimal effective dose in assay [1] and in assay [2] was at most 50 mg/kg throughout.
